{"source": "patent US20240398811A1", "about": "“PRC2 INHIBITORS FOR USE IN TREATING BLOOD DISORDERS” (ORIC Pharmaceuticals, Inc., priority 2021, published 2024)", "target": "purified human, His-tagged PRC2 complex (Homo sapiens (Human), UniProt O75530)", "sequence (O75530 whole entry)": "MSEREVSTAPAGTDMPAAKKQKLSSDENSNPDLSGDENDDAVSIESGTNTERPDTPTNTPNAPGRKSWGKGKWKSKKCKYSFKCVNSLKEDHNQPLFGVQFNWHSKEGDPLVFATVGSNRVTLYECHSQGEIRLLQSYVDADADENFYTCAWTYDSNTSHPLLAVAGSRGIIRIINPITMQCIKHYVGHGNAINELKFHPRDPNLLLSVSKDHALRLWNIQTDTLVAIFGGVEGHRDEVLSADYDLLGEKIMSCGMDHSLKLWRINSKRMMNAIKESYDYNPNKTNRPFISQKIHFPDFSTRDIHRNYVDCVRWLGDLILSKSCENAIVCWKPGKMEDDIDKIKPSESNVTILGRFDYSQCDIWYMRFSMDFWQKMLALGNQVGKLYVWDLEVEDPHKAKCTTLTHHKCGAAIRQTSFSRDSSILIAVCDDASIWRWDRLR", "sequence (Q15910 whole entry partner)": "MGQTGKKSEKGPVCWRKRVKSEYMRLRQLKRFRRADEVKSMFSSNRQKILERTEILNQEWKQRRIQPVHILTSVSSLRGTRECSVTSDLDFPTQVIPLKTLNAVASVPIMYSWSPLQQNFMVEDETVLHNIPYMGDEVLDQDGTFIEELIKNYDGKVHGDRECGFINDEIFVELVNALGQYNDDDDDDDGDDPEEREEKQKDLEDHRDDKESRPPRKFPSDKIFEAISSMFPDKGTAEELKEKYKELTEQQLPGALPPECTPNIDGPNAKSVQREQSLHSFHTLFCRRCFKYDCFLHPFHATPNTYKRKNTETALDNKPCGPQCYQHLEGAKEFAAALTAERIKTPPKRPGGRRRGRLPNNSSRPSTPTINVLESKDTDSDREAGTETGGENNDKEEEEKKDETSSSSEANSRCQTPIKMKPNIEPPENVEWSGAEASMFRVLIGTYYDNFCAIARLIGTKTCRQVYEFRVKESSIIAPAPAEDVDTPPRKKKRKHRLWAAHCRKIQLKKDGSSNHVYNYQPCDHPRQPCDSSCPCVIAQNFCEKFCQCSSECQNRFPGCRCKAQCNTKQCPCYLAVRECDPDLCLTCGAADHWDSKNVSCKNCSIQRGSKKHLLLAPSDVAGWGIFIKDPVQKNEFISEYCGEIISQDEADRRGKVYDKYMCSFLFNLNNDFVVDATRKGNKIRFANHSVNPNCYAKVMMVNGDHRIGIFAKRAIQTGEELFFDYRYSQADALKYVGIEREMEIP", "sequence (Q15022 whole entry partner)": "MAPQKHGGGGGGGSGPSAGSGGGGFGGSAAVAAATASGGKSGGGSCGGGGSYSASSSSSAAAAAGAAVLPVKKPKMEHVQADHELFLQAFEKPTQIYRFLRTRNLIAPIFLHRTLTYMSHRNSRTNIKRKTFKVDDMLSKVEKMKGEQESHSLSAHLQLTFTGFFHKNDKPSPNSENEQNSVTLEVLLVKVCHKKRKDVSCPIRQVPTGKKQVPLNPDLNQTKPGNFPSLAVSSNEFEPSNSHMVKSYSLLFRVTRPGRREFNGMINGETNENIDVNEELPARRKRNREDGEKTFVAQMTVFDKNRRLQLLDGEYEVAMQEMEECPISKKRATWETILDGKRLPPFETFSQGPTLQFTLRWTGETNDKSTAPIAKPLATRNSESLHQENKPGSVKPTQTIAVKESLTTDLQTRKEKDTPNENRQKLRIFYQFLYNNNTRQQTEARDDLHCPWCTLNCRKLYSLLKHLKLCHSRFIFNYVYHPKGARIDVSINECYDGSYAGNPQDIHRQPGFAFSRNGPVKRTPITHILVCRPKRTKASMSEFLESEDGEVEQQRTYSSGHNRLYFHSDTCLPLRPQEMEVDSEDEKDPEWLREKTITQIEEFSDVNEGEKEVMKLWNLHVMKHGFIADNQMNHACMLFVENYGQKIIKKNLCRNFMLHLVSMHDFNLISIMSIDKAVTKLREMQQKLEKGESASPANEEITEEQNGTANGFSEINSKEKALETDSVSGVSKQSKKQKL", "sequence (Q6ZN18 whole entry partner)": "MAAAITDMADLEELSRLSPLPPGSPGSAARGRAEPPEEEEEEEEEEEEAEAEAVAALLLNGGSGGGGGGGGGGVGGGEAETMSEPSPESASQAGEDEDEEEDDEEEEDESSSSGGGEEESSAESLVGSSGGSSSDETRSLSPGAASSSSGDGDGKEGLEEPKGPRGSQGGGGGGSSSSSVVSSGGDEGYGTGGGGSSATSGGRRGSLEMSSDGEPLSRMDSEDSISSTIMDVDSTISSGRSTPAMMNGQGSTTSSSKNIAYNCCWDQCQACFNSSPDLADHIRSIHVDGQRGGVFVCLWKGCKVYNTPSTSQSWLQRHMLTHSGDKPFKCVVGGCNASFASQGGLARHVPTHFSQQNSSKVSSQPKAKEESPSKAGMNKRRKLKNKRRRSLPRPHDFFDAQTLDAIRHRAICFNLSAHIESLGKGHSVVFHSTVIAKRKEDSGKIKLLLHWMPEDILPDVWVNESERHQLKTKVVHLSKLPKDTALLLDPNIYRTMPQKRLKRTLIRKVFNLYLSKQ", "sequence (Q09028 whole entry partner)": "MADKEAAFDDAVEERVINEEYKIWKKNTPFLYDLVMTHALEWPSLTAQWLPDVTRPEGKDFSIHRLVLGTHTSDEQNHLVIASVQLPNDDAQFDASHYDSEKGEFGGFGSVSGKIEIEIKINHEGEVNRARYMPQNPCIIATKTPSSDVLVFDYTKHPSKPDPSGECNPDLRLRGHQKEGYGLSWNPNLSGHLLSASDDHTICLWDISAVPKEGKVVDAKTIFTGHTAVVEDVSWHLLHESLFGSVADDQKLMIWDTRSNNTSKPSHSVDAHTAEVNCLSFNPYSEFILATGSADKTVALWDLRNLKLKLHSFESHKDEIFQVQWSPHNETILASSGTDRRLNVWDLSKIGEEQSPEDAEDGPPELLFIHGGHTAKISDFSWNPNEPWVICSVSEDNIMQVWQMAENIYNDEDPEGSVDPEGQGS", "experiment": "Hot Spot HMT assay, inhibition of PRC2 enzymatic activity", "assay_type": "biochemical", "details": "10 nM PRC2 complex, 1 μM 3H-SAM, core histone H3, 10-point dose-response", "from_the_text": "The assay uses purified human, His-tagged PRC2 complex, including N-terminal His-tagged EZH2 enzyme, N-terminal Flag-tagged embryonic ectoderm development protein (EED), N-terminal His-tagged suppressor of zeste 12 (SUZ12), N-terminal His-tagged AEBP2, and N-terminal His-tagged RbAp48. In this assay, the transfer of the tritiated methyl group from radiolabeled S-adenosyl methionine (SAM) to purified core histone protein by EZH2 is quantitated after filtration to determine the activity of the core PRC2 complex in the presence and absence of compound.\nThe initial starting concentration for the serial dilutions of each compound was 1.0 μM. […] SAH (S-(5-adenosyl)-L-homocysteine) was used as a positive control for assay validation.\nAn aliquot of each serial dilution of test compound was added to deep 384 well plate using Acoustic Technology instrument (Echo 550, LabCyte) containing reaction buffer (50 mM Tris-HCl (pH 8.)), 0.01% Brij35, 1 mM EDTA, 1 mM DTT, 1 mM PMSF and 1% DMSO), 10 nM purified PRC2 complex and 0.05 mg/ml core histone H3 in a 5 μl volume. The reaction was mixed gently and then pre-incubated for 20 min at 30° C. The enzymatic reaction was initiated by adding 1 μM S-Adenosyl-L-[methyl-^3H]methionine and incubated for 1 hr at 30° C. After 1 hr, the reaction product was detected using a filter binding method and the amount of tritiated H3 core histone was quantitated using a scintillation counter. […] Key: A=<100 nM; B=>100 nM-<500 nM; and C=>500 nM.", "data": [{"compound": "CN(C)C(=O)c1ccc(-c2cnc(NCc3c(F)ccc4c3CCO4)n3cc(C#N)nc23)c(Cl)c1", "note": "[Example 31, 3-chloro-4-(2-cyano-5-(((5-fluoro-2,3-dihydrobenzofuran-4-yl)methyl)amino)imidazo[1,2-c]pyrimidin-8-yl)-N,N-dimethylbenzamide]", "values": [{"measurement": "IC50", "result": "< 0.1", "unit": "µM"}]}, {"compound": "CN(C)Cc1ccc(-c2cnc(NCc3c(F)ccc4c3CCO4)n3cc(C#N)nc23)c(Cl)c1", "note": "[Example 33, 8-(2-chloro-4-((dimethylamino)methyl)phenyl)-5-(((5-fluoro-2,3-dihydrobenzofuran-4-yl)methyl)amino)imidazo[1,2-c]pyrimidine-2-carbonitrile]", "values": [{"measurement": "IC50", "result": "< 0.1", "unit": "µM"}]}, {"compound": "CN(C)C(=O)c1ccc(-c2cnc(NCc3c(F)ccc4c3CCO4)n3cc(C#N)nc23)c(Cl)c1F", "note": "[Example 34, 3-chloro-4-(2-cyano-5-(((5-fluoro-2,3-dihydrobenzofuran-4-yl)methyl)amino)imidazo[1,2-c]pyrimidin-8-yl)-2-fluoro-N,N-dimethylbenzamide]", "values": [{"measurement": "IC50", "result": "< 0.1", "unit": "µM"}]}, {"compound": "CN(C)C(=O)c1cc(Cl)c(-c2cnc(NCc3c(F)ccc4c3CCO4)n3cc(C#N)nc23)cc1F", "note": "[Example 35, 5-chloro-4-(2-cyano-5-(((5-fluoro-2,3-dihydrobenzofuran-4-yl)methyl)amino)imidazo[1,2-c]pyrimidin-8-yl)-2-fluoro-N,N-dimethylbenzamide]", "values": [{"measurement": "IC50", "result": "< 0.1", "unit": "µM"}]}, {"compound": "CN(C)C(=O)c1ccc(-c2cnc(NCc3c(F)ccc4c3CCO4)n3cc(C#N)nc23)cc1F", "note": "[Example 36, 4-(2-cyano-5-(((5-fluoro-2,3-dihydrobenzofuran-4-yl)methyl)amino)imidazo[1,2-c]pyrimidin-8-yl)-2-fluoro-N,N-dimethylbenzamide]", "values": [{"measurement": "IC50", "result": "< 0.1", "unit": "µM"}]}, {"compound": "CN(C)Cc1ccc(-c2cnc(NCc3c(F)ccc4c3CCO4)n3cc(C#N)nc23)c(F)c1F", "note": "[Example 37, 8-(4-((dimethylamino)methyl)-2,3-difluorophenyl)-5-(((5-fluoro-2,3-dihydrobenzofuran-4-yl)methyl)amino)imidazo[1,2-c]pyrimidine-2-carbonitrile]", "values": [{"measurement": "IC50", "result": "< 0.1", "unit": "µM"}]}, {"compound": "CN(C)C(=O)c1cc(F)c(-c2cnc(NCc3c(F)ccc4c3CCO4)n3cc(C#N)nc23)cc1F", "note": "[Example 38, 4-(2-cyano-5-(((5-fluoro-2,3-dihydrobenzofuran-4-yl)methyl)amino)imidazo[1,2-c]pyrimidin-8-yl)-2,5-difluoro-N,N-dimethylbenzamide]", "values": [{"measurement": "IC50", "result": "< 0.1", "unit": "µM"}]}, {"compound": "CN(C)Cc1cc(F)c(-c2cnc(NCc3c(F)ccc4c3CCO4)n3cc(C#N)nc23)cc1F", "note": "[Example 39, 8-(4-((dimethylamino)methyl)-2,5-difluorophenyl)-5-(((5-fluoro-2,3-dihydrobenzofuran-4-yl)methyl)amino)imidazo[1,2-c]pyrimidine-2-carbonitrile]", "values": [{"measurement": "IC50", "result": "< 0.1", "unit": "µM"}]}, {"compound": "CN(C)Cc1ncc(-c2cnc(NCc3c(F)ccc4c3CCO4)n3cc(C#N)nc23)cc1F", "note": "[Example 40, 8-(6-((dimethylamino)methyl)-5-fluoropyridin-3-yl)-5-(((5-fluoro-2,3-dihydrobenzofuran-4-yl)methyl)amino)imidazo[1,2-c]pyrimidine-2-carbonitrile]", "values": [{"measurement": "IC50", "result": "< 0.1", "unit": "µM"}]}, {"compound": "Cc1cc(-c2cnc(NCc3c(F)ccc4c3CCO4)n3cc(C#N)nc23)cnn1", "note": "[Example 41, 5-(((5-fluoro-2,3-dihydrobenzofuran-4-yl)methyl)amino)-8-(6-methylpyridazin-4-yl)imidazo[1,2-c]pyrimidine-2-carbonitrile]", "values": [{"measurement": "IC50", "result": "< 0.1", "unit": "µM"}]}, {"compound": "CN(C)C(=O)c1ccc(-c2cnc(NCc3c(F)ccc4c3CCO4)n3cc(C#N)nc23)c(F)c1F", "note": "[Example 42, 4-(2-cyano-5-(((5-fluoro-2,3-dihydrobenzofuran-4-yl)methyl)amino)imidazo[1,2-c]pyrimidin-8-yl)-2,3-difluoro-N,N-dimethylbenzamide]", "values": [{"measurement": "IC50", "result": "< 0.1", "unit": "µM"}]}, {"compound": "Cc1cc(C(=O)N(C)C)c(F)cc1-c1cnc(NCc2c(F)ccc3c2CCO3)n2cc(C#N)nc12", "note": "[Example 43, 4-(2-cyano-5-(((5-fluoro-2,3-dihydrobenzofuran-4-yl)methyl)amino)imidazo[1,2-c]pyrimidin-8-yl)-2-fluoro-N,N,5-trimethylbenzamide]", "values": [{"measurement": "IC50", "result": "< 0.1", "unit": "µM"}]}]}
